Source: BigSolDB 2.1

NCC(CC(=O)O)c1ccc(Cl)cc1 (configuration not stated)
solubility (mole fraction)
Settings | 273.15 K | 278.15 K | 283.15 K | 288.15 K | 293.15 K | 298.15 K | 303.15 K | 308.15 K | 313.15 K | 318.15 K
in 1,4-dioxane | – | – | – | 0.000519 | 0.000568 | 0.000632 | 0.000704 | 0.000788 | 0.000888 | 0.000996
in 2-butanone | 0.000439 | 0.000475 | 0.000522 | 0.000579 | 0.000639 | 0.000703 | 0.000792 | 0.0009 | 0.00101 | 0.00112
in DMAc | 0.0934 | 0.0945 | 0.0957 | 0.0969 | 0.0982 | 0.0995 | 0.101 | 0.102 | 0.104 | 0.105
in DMF | 0.0998 | 0.101 | 0.102 | 0.104 | 0.106 | 0.108 | 0.11 | 0.112 | 0.115 | 0.117
in acetone | 0.000228 | 0.000236 | 0.000246 | 0.000258 | 0.000273 | 0.000289 | 0.000305 | 0.000322 | 0.00034 | 0.000358
in ethanol | 1.95e-05 | 2.23e-05 | 2.58e-05 | 3e-05 | 3.4e-05 | 3.85e-05 | 4.33e-05 | 4.86e-05 | 5.39e-05 | 5.86e-05
in ethyl acetate | 0.00412 | 0.00419 | 0.00427 | 0.00436 | 0.00446 | 0.00456 | 0.00467 | 0.00476 | 0.00488 | 0.00499
in isopropanol | 3.16e-05 | 3.67e-05 | 4.17e-05 | 4.74e-05 | 5.35e-05 | 5.99e-05 | 6.67e-05 | 7.41e-05 | 8.21e-05 | 9.04e-05
in methanol | 0.000109 | 0.000116 | 0.000124 | 0.000133 | 0.000143 | 0.000153 | 0.000162 | 0.000173 | 0.000186 | 0.000198
in n-butanol | 5.73e-05 | 6.12e-05 | 6.61e-05 | 7.11e-05 | 7.68e-05 | 8.34e-05 | 9.06e-05 | 9.72e-05 | 0.000104 | 0.000113
in n-propanol | 2.57e-05 | 3.01e-05 | 3.47e-05 | 4.03e-05 | 4.61e-05 | 5.35e-05 | 6.1e-05 | 6.85e-05 | 7.63e-05 | 8.77e-05
in toluene | 0.0054 | 0.00569 | 0.00601 | 0.00639 | 0.00673 | 0.00709 | 0.00749 | 0.0079 | 0.00831 | 0.00866
